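Briefly, cells in 96-well plates were exposed to five compound concentrations for 48 h, and endpoints were estimated by linear interpolation. GI50: concentration for 50% inhibition of growth.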 Active and inactive are the calls of the source. Cut-off read from the data, not from the text of the source: active = GI50 up to about 1.1 µM and inactive = higher.
Assays:
Experiment in all cases: DTP human tumour cell line panel, 48 h
SK-MEL-2 = tested on: SK-MEL-2
HT-29 = tested on: HT-29
SF-539 = tested on: SF-539
M14 = tested on: M14
HCT-15 = tested on: HCT-15
SK-MEL-28 = tested on: SK-MEL-28
SK-OV-3 = tested on: SK-OV-3
NCI-H226 = tested on: NCI-H226
Malme-3M = tested on: Malme-3M
HL-60 = tested on: HL-60
OVCAR-3 = tested on: OVCAR-3
SR = tested on: SR
LXFL 529 = tested on: LXFL 529
RPMI-8226 = tested on: RPMI-8226
SNB-75 = tested on: SNB-75
MOLT-4 = tested on: MOLT-4
HCT-116 = tested on: HCT-116
LOX IMVI = tested on: LOX IMVI
OVCAR-8 = tested on: OVCAR-8
CAKI-1 = tested on: CAKI-1
NCI-H460 = tested on: NCI-H460
SF-295 = tested on: SF-295
HOP-62 = tested on: HOP-62
HOP-18 = tested on: HOP-18
CCRF-CEM = tested on: CCRF-CEM
OVCAR-4 = tested on: OVCAR-4
NCI-H522 = tested on: NCI-H522
EKVX = tested on: EKVX
SNB-19 = tested on: SNB-19
NCI-H23 = tested on: NCI-H23
786-0 = tested on: 786-0
DLD-1 = tested on: DLD-1
SNB-78 = tested on: SNB-78
K562 = tested on: K562
OVCAR-5 = tested on: OVCAR-5
M19-MEL = tested on: M19-MEL
UACC-257 = tested on: UACC-257
DMS-114 = tested on: DMS-114
XF498 = tested on: XF498
A549 = tested on: A549
UO-31 = tested on: UO-31
KM-20L2 = tested on: KM-20L2
RXF 393 = tested on: RXF 393
TK-10 = tested on: TK-10
UACC-62 = tested on: UACC-62
ACHN = tested on: ACHN
U-251 = tested on: U-251
SK-MEL-5 = tested on: SK-MEL-5
COLO 205 = tested on: COLO 205
IGROV-1 = tested on: IGROV-1
SW-620 = tested on: SW-620
KM12 = tested on: KM12
SN12C = tested on: SN12C
DMS-273 = tested on: DMS-273
HCC 2998 = tested on: HCC 2998
A498 = tested on: A498
SF-268 = tested on: SF-268
HOP-92 = tested on: HOP-92

SMILES: NCCCCCCNCc1cccc2ccccc12
- GI50 (SK-MEL-2): 41.3 µM (inactive)
- GI50 (HT-29): 38.3 µM (inactive)
- GI50 (SF-539): 40.6 µM (inactive)
- GI50 (M14): 18.4 µM (inactive)
- GI50 (HCT-15): 74.6 µM
- GI50 (SK-MEL-28): 65.2 µM (inactive)
- GI50 (SK-OV-3): > 100 µM (inactive)
- GI50 (NCI-H226): > 100 µM (inactive)
- GI50 (Malme-3M): 19.1 µM (inactive)
- GI50 (HL-60): 54.2 µM (inactive)
- GI50 (OVCAR-3): > 100 µM (inactive)
- GI50 (SR): 45.3 µM (inactive)
- GI50 (LXFL 529): > 100 µM (inactive)
- GI50 (RPMI-8226): > 100 µM (inactive)
- GI50 (SNB-75): > 100 µM (inactive)
- GI50 (MOLT-4): 40.8 µM (inactive)
- GI50 (HCT-116): 95.1 µM (inactive)
- GI50 (LOX IMVI): 41 µM (inactive)
- GI50 (OVCAR-8): > 100 µM (inactive)
- GI50 (CAKI-1): > 100 µM (inactive)
- GI50 (NCI-H460): > 100 µM (inactive)
- GI50 (SF-295): > 100 µM (inactive)
- GI50 (HOP-62): > 100 µM (inactive)
- GI50 (HOP-18): 24.2 µM (inactive)
- GI50 (CCRF-CEM): > 10 µM (inactive)
- GI50 (OVCAR-4): > 100 µM (inactive)
- GI50 (NCI-H522): 83.6 µM (inactive)
- GI50 (EKVX): > 100 µM (inactive)
- GI50 (SNB-19): > 100 µM (inactive)
- GI50 (NCI-H23): > 100 µM (inactive)
- GI50 (786-0): > 100 µM (inactive)
- GI50 (DLD-1): > 100 µM (inactive)
- GI50 (SNB-78): > 100 µM (inactive)
- GI50 (K562): 19.8 µM (inactive)
- GI50 (OVCAR-5): > 100 µM (inactive)
- GI50 (M19-MEL): > 100 µM (inactive)
- GI50 (UACC-257): 46.3 µM (inactive)
- GI50 (DMS-114): > 100 µM (inactive)
- GI50 (XF498): 44.2 µM (inactive)
- GI50 (A549): > 100 µM (inactive)
- GI50 (UO-31): 53.5 µM (inactive)
- GI50 (KM-20L2): 58.3 µM (inactive)
- GI50 (RXF 393): 57 µM (inactive)
- GI50 (TK-10): > 100 µM (inactive)
- GI50 (UACC-62): > 100 µM (inactive)
- GI50 (ACHN): > 100 µM (inactive)
- GI50 (U-251): > 100 µM (inactive)
- GI50 (SK-MEL-5): 90.8 µM (inactive)
- GI50 (COLO 205): 29.9 µM (inactive)
- GI50 (IGROV-1): > 100 µM (inactive)
- GI50 (SW-620): 85.5 µM (inactive)
- GI50 (KM12): 99.8 µM (inactive)
- GI50 (SN12C): > 100 µM (inactive)

SMILES: COC(=O)C1=C(c2ccc3c(c2)OCO3)O[C@H](c2cc(OC)c(OC)c(OC)c2)[C@H]1COC(C)=O
- GI50 (DMS-273): 2.64 µM (inactive)
- GI50 (SK-MEL-2): 12.6 µM (inactive)
- GI50 (HT-29): 2.53 µM (inactive)
- GI50 (SF-539): 1.99 µM (inactive)
- GI50 (M14): 1.71 µM (inactive)
- GI50 (HCC 2998): 1.74 µM (inactive)
- GI50 (HCT-15): 5.68 µM
- GI50 (SK-MEL-28): 12.2 µM (inactive)
- GI50 (SK-OV-3): 1.14 µM (inactive)
- GI50 (NCI-H226): 10.4 µM (inactive)
- GI50 (Malme-3M): 1.99 µM (inactive)
- GI50 (HL-60): 0.49 µM (active)
- GI50 (OVCAR-3): 1.19 µM (inactive)
- GI50 (SR): 1.35 µM (inactive)
- GI50 (LXFL 529): 2.94 µM (inactive)
- GI50 (RPMI-8226): 11.3 µM (inactive)
- GI50 (SNB-75): 4.06 µM (inactive)
- GI50 (MOLT-4): 3.03 µM (inactive)
- GI50 (HCT-116): 4.55 µM (inactive)
- GI50 (LOX IMVI): 8.91 µM (inactive)
- GI50 (OVCAR-8): 5.04 µM (inactive)
- GI50 (CAKI-1): 1.95 µM (inactive)
- GI50 (NCI-H460): 4.3 µM (inactive)
- GI50 (SF-295): 0.282 µM (active)
- GI50 (HOP-62): 3.08 µM (inactive)
- GI50 (HOP-18): 15.2 µM (inactive)
- GI50 (CCRF-CEM): 7.87 µM (inactive)
- GI50 (OVCAR-4): 7.48 µM (inactive)
- GI50 (A498): 0.352 µM (active)
- GI50 (EKVX): 38.3 µM (inactive)
- GI50 (SF-268): 7.5 µM (inactive)
- GI50 (NCI-H23): 2.25 µM (inactive)
- GI50 (786-0): 4.12 µM (inactive)
- GI50 (DLD-1): 7.19 µM (inactive)
- GI50 (SNB-78): 8.49 µM (inactive)
- GI50 (K562): 3.22 µM (inactive)
- GI50 (OVCAR-5): 41.8 µM (inactive)
- GI50 (M19-MEL): 2.45 µM (inactive)
- GI50 (UACC-257): 4.4 µM (inactive)
- GI50 (DMS-114): 1.15 µM (inactive)
- GI50 (XF498): 4.25 µM (inactive)
- GI50 (A549): 7.08 µM (inactive)
- GI50 (UO-31): 4.31 µM (inactive)
- GI50 (HOP-92): 2.67 µM (inactive)
- GI50 (KM-20L2): 2.14 µM (inactive)
- GI50 (RXF 393): 1.57 µM (inactive)
- GI50 (TK-10): 13.5 µM (inactive)
- GI50 (UACC-62): 3.32 µM (inactive)
- GI50 (ACHN): 4.91 µM (inactive)
- GI50 (U-251): 3.48 µM (inactive)
- GI50 (SK-MEL-5): 0.973 µM (active)
- GI50 (COLO 205): 0.984 µM (active)
- GI50 (IGROV-1): 6.84 µM (inactive)
- GI50 (SW-620): 3.87 µM (inactive)
- GI50 (KM12): 4.31 µM (inactive)
- GI50 (SN12C): 4.34 µM (inactive)
